Measured values reported in patent US20030091975A1, “Multiple determinants for metabolic phenotypes” (priority 2001, published 2003).
Where two headings read alike, the source gives them in different places. Marks after values point to notes of the source that are not given here.

How the values were obtained:
[1] = cited from earlier work
[2] = cited from earlier work; remark: listed apart in the source
[3] = cited from earlier work; remark: listed apart in the source
[4] = 2 mg/kg, cited from earlier work
μ-opiod receptor = μ-opiod receptor (Homo sapiens, UniProt P35372); settings: relative to morphine; cited from earlier work
μ-opiod receptor, sequence (P35372 whole entry): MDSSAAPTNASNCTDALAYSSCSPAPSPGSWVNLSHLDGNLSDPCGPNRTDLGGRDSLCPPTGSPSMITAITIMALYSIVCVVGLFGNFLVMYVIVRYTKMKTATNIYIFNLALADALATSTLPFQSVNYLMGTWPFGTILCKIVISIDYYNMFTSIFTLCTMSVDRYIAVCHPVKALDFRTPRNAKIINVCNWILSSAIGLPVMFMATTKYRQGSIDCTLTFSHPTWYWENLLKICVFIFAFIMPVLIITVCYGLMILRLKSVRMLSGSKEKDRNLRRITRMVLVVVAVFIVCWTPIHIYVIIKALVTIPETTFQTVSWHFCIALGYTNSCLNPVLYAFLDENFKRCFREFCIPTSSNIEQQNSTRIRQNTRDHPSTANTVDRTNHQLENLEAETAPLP

1,7-DMU-Ab = test: Competitive antigen ELISA, antibody specificity of 1,7-DMU-Ab; format: binding, rabbit; settings: ideal antibody specificity result hypothesized; 0 = no inhibition or no higher than 40% at 5×10^−3 M
Method: (§1) BSA, antibodies, Tween™ 20 and horse radish peroxidase are added to buffers and water just prior to use. Urine samples are usually collected four hours after drinking a cup of coffee (instant or brewed with approximately 100 mg of caffeine per cup) and stored at −20° C. as 1-mL aliquots in 1.5-mL microtubes. For the ELISA, the urine samples are diluted with isotonic sodium phosphate buffer, pH 7.5 (310 mosM) to give concentrations of caffeine, 1.7-DMX and 1,7-DMU no higher than 3×10^−6 M in the microtiter plate wells. Wells of the ELISA plate are washed with a Nunc-Immuno wash 12 washer. Sixteen milliliters of a solution of 6.6 μg ml^−1 of isolated IgG antibodies is prepared in a 100 mM sodium carbonate buffer, pH 9.6, and 150 μL of this solution is pipetted in each well of a microtiter plate using a eight channel pipet (Brinkmann Transferpette™-8 50-200 μL) and 200 μL Flex tips from Brinkmann). After coating the wells with antibodies at 4° C. for 20 hours, the wells are washed 3 times with the isotonic sodium phosphate buffer containing 0.05% Tween™ 20 (IPBT) and properly drained by inverting the plate and absorbing the liquid on to a piece of paper towel. Thirty milliliters of a solution of a IPBT solution containing 1% BSA is prepared and 150 μL of this solution is pipetted in each well using a eight channel pipet (Brinkmann Transferpette ™-8 50-200 μL) and 200 μL yellow tips (Sarstedt yellow tips for P200 Gilson Pipetman). After 3 hours at room temperature, the wells are washed 3 times with IPBT solution and drained. Samples of 400 μL for determination of caffeine, 1,7-DMX and 1,7-DMU are prepared in 1.5-mL microtubes using Sarstedt yellow tips and a P200 Gilson Pipetman. Then, 200 μL of each sample are pipetted in duplicate in a Falcon 96-well microtest tissue culture plate according to the pattern shown in FIG. 22, using Sarstedt yellow tips and a P200 Gilson Pipetman. Using an eight channel pipet (Brinkmann Transferpette™-8 50-200 μL) and changing the tips of the eight channel pipet (200μL Flex tips from Brinkmann) at each row, 150 μL of samples are transferred in the corresponding wells of a 96-well ELISA microtiter plate coated with antibodies. After the addition of the samples, the microtiter plates are covered and left standing at room temperature for 2 h. While the plate is left standing the substrate buffer without the hydrogen peroxide and o-phenylenediamine hydrochloride is prepared (25 mM citric acid and 50 mM sodium phosphate dibasic buffer, pH 5.0). The microtiter plate is washed 3 times with the IPBT solution and 3 times with a 0.05% Tween™ 20 solution and drained. Then, 50 μL of hydrogen peroxide and 40 mg of o-phenylenediamine are added to the substrate buffer. One hundred fifty microliters (150 μL) of the substrate buffer solution is then added to each well using a eight channel pipet (Brinkmann Transferpette™-8 50-200 μL) and 200 μL Flex tips (Brinkmann). The microtiter plate is covered and shaken for 25-30 min at room temperature and the enzymatic reaction is stopped by adding 50 μL/well of a 2.5 N HCl solution using an eight channel pipet (Brinkmann Transferpette™-8 50-200 μL) and 200L Flex tips (Brinkmann).

Caffeine-Ab = test: Competitive antigen ELISA, antibody specificity of caffeine-Ab; format: binding, rabbit; settings: ideal antibody specificity result hypothesized; 0 = no inhibition or no higher than 40% at 5×10^−3 M
Method: as §1

AAMU-Ab = test: Competitive antigen ELISA, cross-reactivity of AAMU-Ab; format: binding, rabbit; settings: 0 = absence of inhibition or inhibition no higher than 40% at the highest concentration tested (5×10^−3 M)
Method: (§2) Buffers and water without additives are filtered through millipore filters and kept for 1 week. BSA, antibodies, Tween™ 20 and horse radish peroxidase conjugates are added to these buffers and water just prior to use. Urine samples are usually collected 4 hours after drinking a cup of coffee (instant or brewed with approximately 100 mg of caffeine per cup) and stored at −80° C. The urine samples are diluted 10 times with sodium phosphate buffer (620 mosm, pH 7.50) and are subsequently diluted with water to give concentrations of AAMU and 1X no higher than 3×10^−6 M in the ELISA. All the pipettings are done with an eight-channel pipette, except those of the antibody and sample solutions. Starting with the last well, 100 μL of a carbonate buffer (100 mM, pH 9.6) containing 2.5 μg mL-1 antibodies are added to each well. After 90 min. at room temperature, the wells are washed three times with […] of TPB: isotonic sodium phosphate buffer (310 mosm, pH 7.50) containing 0.05% Tween™ 20.
(§3) After the initial wash, unoccupied sites are blocked by incubation for 90 min. at room temperature with 100 μL TBP containing 3% BSA. The wells are washed four times with 100 μL TPB. […] The microplate is gently shaken with an orbital shaker at room temperature for 3-4 hours. The wells are washed three times with 100 μL TPB containing 1% BSA and three times with water containing 0.05% Tween ™ 20. To the washed plate is added 150 μL of a substrate buffer composed of citric acid (25 mM) and sodium phosphate dibasic buffer (50 mM, pH 5.0) containing 0.06% hydrogen peroxide and 0.04% o-phenylenediamine hydrochloride.
(§4) Buffers and water without additives were filtered through millipore filters and kept for 1 week. BSA, antibodies, Tween ™ 20 and horse radish peroxidase conjugates were added to these buffers and water just prior to use. Urine samples were usually collected 4 hours after drinking a cup of coffee (instant or brewed with approximately 100 mg of caffeine per cup) and stored at 80° C. They were diluted 10 times with sodium phosphate buffer (620 mosm, pH 7.50) and were subsequently diluted with water to give concentrations of AAMU and 1X no higher than 3×10^−6 M in the ELISA. All the pipettings were done with an eight-channel pipette, except those of the antibody and sample solutions. Starting with the last well, 100 μL of a carbonate buffer (100 mM, pH 9.6) containing 2.5 μg mL^−1 antibodies was pipetted. After 90 min. at room temperature, the wells were washed three times with 100 μL of TPB: isotonic sodium phosphate buffer (310 mosm, pH 7.50) containing 0.05% Tween™ 20.
(§5) After the initial wash, unoccupied sites were blocked by incubation for 90 min. at room temperature with 100 μL TBP containing 3% BSA. The wells were washed four times with 100 μL TPB. […] The microplate was gently shaken with an orbital shaker at room temperature for 3-4 hours. The wells were washed three times with 100 μL with TPB containing 1% BSA and three times with water containing 0.05% Tween™ 20. To the washed plate was added 150 μL of a substrate buffer composed of citric acid (25 mM) and sodium phosphate dibasic buffer (50 mM, pH 5.0) containing 0.06% hydrogen peroxide and 0.04% o-phenylenediamine hydrochloride. After 20 min. at room temperature with shaking, the reaction was stopped with 50 μL of 2.5 N HCl.
(§6) The cross reactivities of AAMU-Ab and 1X-Ab were tested using a wide variety of caffeine metabolites and structural analogs (Table 5 below).

1X-Ab = test: Competitive antigen ELISA, cross-reactivity of 1X-Ab; format: binding, rabbit; settings: 0 = absence of inhibition or inhibition no higher than 40% at the highest concentration tested (5×10^−3 M)
Method: as §2, §3, §4, §5, §6

1,7-DMX-Ab = test: Competitive antigen ELISA, antibody specificity of 1,7-DMX-Ab; format: binding, rabbit; settings: ideal antibody specificity result hypothesized; 0 = no inhibition or no higher than 40% at 5×10^−3 M
Method: as §1

SMILES	% Cross-reaction 1,7-DMU-Ab (1,7-DMU-Ab)	% Cross-reaction Caffeine-Ab (Caffeine-Ab)	% Cross-Reaction AAMU-Ab (AAMU-Ab)	% Cross-Reaction 1X-Ab (1X-Ab)	% Cross-reaction 1,7-DMX-Ab (1,7-DMX-Ab)	also measured
COc1ccc2c(c1)[C@]13CCCC[C@@H]1[C@H](C2)N(C)CC3 [Dextromethorphan]	–	–	–	–	–	mean performance +/−SE ([1]; extensive metabolizers (EMs)): 95+/−0.5%; mean performance +/−SE ([1]; poor metabolizers (PMs), p<0.05): 86+/−6%
CN(C)CCN1C(=O)c2cccc3cc(N)cc(c23)C1=O [Amonafide]	–	–	–	–	–	deaths ([2]; 300 mg/m^2, extremely fast acetylators): two women (both oriental) died from severe myelosuppression; response rate ([2]; individuals considered to be properly dosed): 30-50%; overall response rate ([2]; phase II trial, standard 300 mg/m^2 dose for all individuals): 18%
Nc1ccc(S(=O)(=O)c2ccc(N)cc2)cc1 [dapsone]	–	–	–	–	–	adverse reactions to dapsone ([3]; fast acetylators): 17%; adverse reactions to dapsone ([3]; slow acetylators): 46%
COc1cccc(C2(O)CCCCC2CN(C)C)c1 (centres unmarked) [Tramadol]	–	–	–	–	–	side effects vs placebo ([4]; extensive metabolizers): caused side effects significantly more frequently than placebo; analgesic effect ([4]; extensive vs poor metabolizers): better analgesic in extensive metabolizers as compared to poor metabolizers; affinity for the μ-opiod receptor, factor weaker than morphine (μ-opiod receptor): ~6000
O=c1[nH]c(=O)c2[nH]cnc2[nH]1 [Xanthine]	0%	0%	0^a %	0%	0%	–
O=c1cc[nH]c(=O)[nH]1 [Uracil]	0%	0%	0%	0%	0%	–
